From PubChem BioAssay (NCI)
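The compound was tested at five concentrations on cells cultured in 96-well plates, with a 48-hour exposure period. TGI denotes the concentration required for complete inhibition of growth.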

Tests used:
Assay in all cases: DTP human tumour cell line panel, 48 h
U251 CNS = system: U251 CNS
SNB-19 CNS = system: SNB-19 CNS
CCRF-CEM leukemia = system: CCRF-CEM leukemia
MDA-MB-231 breast = system: MDA-MB-231 breast
HCT-116 colon = system: HCT-116 colon
PC-3 prostate = system: PC-3 prostate
UACC-257 melanoma = system: UACC-257 melanoma
MALME-3M melanoma = system: MALME-3M melanoma
RXF 393 renal = system: RXF 393 renal
DU-145 prostate = system: DU-145 prostate
T-47D breast = system: T-47D breast
HCC-2998 colon = system: HCC-2998 colon
MCF7 breast = system: MCF7 breast
SN12C renal = system: SN12C renal
COLO 205 colon = system: COLO 205 colon
HT29 colon = system: HT29 colon
OVCAR-3 ovarian = system: OVCAR-3 ovarian
NCI/ADR-RES ovarian = system: NCI/ADR-RES ovarian
KM12 colon = system: KM12 colon
SK-OV-3 ovarian = system: SK-OV-3 ovarian
SK-MEL-28 melanoma = system: SK-MEL-28 melanoma
TK-10 renal = system: TK-10 renal
NCI-H460 lung = system: NCI-H460 lung
UACC-62 melanoma = system: UACC-62 melanoma
NCI-H23 lung = system: NCI-H23 lung
NCI-H226 lung = system: NCI-H226 lung
SF-268 CNS = system: SF-268 CNS
M14 melanoma = system: M14 melanoma
A549 NSCLC = system: A549 NSCLC
SF-539 CNS = system: SF-539 CNS
BT-549 breast = system: BT-549 breast
SK-MEL-5 melanoma = system: SK-MEL-5 melanoma
HCT-15 colon = system: HCT-15 colon
SK-MEL-2 melanoma = system: SK-MEL-2 melanoma
LOX IMVI melanoma = system: LOX IMVI melanoma
MDA-MB-435 = system: MDA-MB-435
HOP-62 NSCLC = system: HOP-62 NSCLC
CAKI-1 renal = system: CAKI-1 renal
UO-31 renal = system: UO-31 renal
A498 renal = system: A498 renal
ACHN renal = system: ACHN renal
NCI-H522 lung = system: NCI-H522 lung
SNB-75 CNS = system: SNB-75 CNS
MDA-N = system: MDA-N
RPMI-8226 leukemia = system: RPMI-8226 leukemia
EKVX NSCLC = system: EKVX NSCLC
SF-295 CNS = system: SF-295 CNS
SW-620 colon = system: SW-620 colon
786-0 renal = system: 786-0 renal
OVCAR-8 ovarian = system: OVCAR-8 ovarian
HOP-92 NSCLC = system: HOP-92 NSCLC
HS 578T breast = system: HS 578T breast
K-562 leukemia = system: K-562 leukemia
OVCAR-5 ovarian = system: OVCAR-5 ovarian
IGROV1 ovarian = system: IGROV1 ovarian
HL-60(TB) leukemia = system: HL-60(TB) leukemia
MOLT-4 leukemia = system: MOLT-4 leukemia
OVCAR-4 ovarian = system: OVCAR-4 ovarian

Measured: TGI

Nc1ccc2c(c1)C(=O)c1c(F)cccc1-2
93.3 µM: HOP-92 NSCLC
37.7 µM: EKVX NSCLC
81.1 µM: SF-539 CNS
41.7 µM: MCF7 breast
95.1 µM: SK-MEL-5 melanoma
not listed: K-562 leukemia | OVCAR-5 ovarian | IGROV1 ovarian | HL-60(TB) leukemia | MOLT-4 leukemia | OVCAR-4 ovarian
> 100 µM: all other assays above

O=C(O)CSCC(=O)Nc1ccc2cccc3c2c1CC3
not listed: SK-OV-3 ovarian | NCI-H460 lung | NCI-H226 lung
> 100 µM: all other assays above
